Measured values from patent US20110296540A1, “ASSAY FOR SCREENING ANTIDEPRESSANTS” (priority 2008, published 2011).
Where two headings read alike, the source gives them in different places.

What was measured:
C57BL/6Ntac mice [1] = experiment: Forced Swim Test, chronic corticosterone model; type: in vivo; settings: for immobility duration (FST): mean±SEM
Giα2 = settings: hypothalamus
Protocol: (§1) Tissue preparation: Animals were sacrificed by cervical dislocation. Selected brain regions were dissected and placed in tubes containing RNAlater (Ambion), incubated at 4 degrees C. overnight and stored at −80 degrees C. until processing.
(§2) Brain regions (10-20 mg) were homogenized for 20 sec at medium speed in 1.25 ml lysis/denaturation buffer (Ambion) using an Autogizer™ (Tomtec). Total RNA was isolated from 100-300 ul aliquots of the homogenate using the RNAqueous™ 96 automated kit (Ambion) according to the manufacturer's protocol. A second DNase I digestion was incorporated after elution of the RNA from the Ambion filter plate to remove residual genomic DNA. Digestion was performed for 1 hr at room temperature using DNase I™ (Invitrogen) and the buffer supplied with the enzyme. After inactivation of the DNase with EDTA and heat, the RNA was desalted with a Multiscreen™ filter plate (Millipore) and stored at −80° C. Conversion of total RNA into first strand cDNA was accomplished with Superscript II™ enzyme (Invitrogen) followed by desalting over a Multiscreen plate. Approximately 1 ug of total RNA was used for each cDNA reaction. The yield of cDNA was determined using Quant-iT Oligreen™ reagent (Invitrogen). Prior to the Oligreen assay, total RNA carried over from the cDNA reaction was hydrolyzed with NaOH and heat, followed by neutralization with Tris buffer. This treatment eliminates any contribution of the RNA to the Oligreen signal. The unknown cDNA samples were compared to a standard curve derived using a 18mer oligonucleotide. Replica cDNA plates containing 3 ng of cDNA per well were prepared using an Evolution P3™ workstation (PerkinElmer). Each animal in a given experiment was represented by one well on each plate and each plate always contained the control and treatment groups.
(§3) Quantitative PCR (qPCR) was carried out in 25 ul reactions using Full Velocity™ enzyme (Stratagene). Plates were run on either a Stratagene MX3000P™ or an Applied Biosystems 7900 HT instrument. The cycling parameters were set based on recommendations from the enzyme manufacturer. One gene expression profile was analyzed per PCR plate and duplicate plates were run for each gene. Two housekeeping genes, cyclophilin and GAPDH, were included in the gene list and were used to normalize the expression results obtained from the other genes of interest (see data analysis section). The sequences of the primers and probes for each gene are listed in supplemental table 1. Duplicate cycle thresholds (Ct values) were obtained for each gene/region and averaged. […] After converting delta Ct values to percentage, the mean and SEM of each animal group (controls and experimental) was calculated.

β-arrestin 2 = system: β-arrestin 2
Protocol: as §1, §2, §3

β-arrestin 1 = settings: hypothalamus
Protocol: as §1, §2, §3

[2] = system: mineralocorticoid receptor
Protocol: as §1, §2
(§4) Quantitative PCR (qPCR) was carried out in 25 ul reactions using Full Velocity™ enzyme (Stratagene). Plates were run on either a Stratagene MX3000P™ or an Applied Biosystems 7900 HT instrument. The cycling parameters were set based on recommendations from the enzyme manufacturer. One gene expression profile was analyzed per PCR plate and duplicate plates were run for each gene. Two housekeeping genes, cyclophilin and GAPDH, were included in the gene list and were used to normalize the expression results obtained from the other genes of interest (see data analysis section). The sequences of the primers and probes for each gene are listed in supplemental table 1. Duplicate cycle thresholds (Ct values) were obtained for each gene/region and averaged. The values for cyclophilin and GAPDH were combined and used to normalize the expression values from the other genes by employing the delta Ct method. After converting delta Ct values to percentage, the mean and SEM of each animal group (controls and experimental) was calculated.
(§5) Tissue preparation, RNA extraction, DNA preparation and qPCR analysis were described in the materials and methods section. Data analysis and statistics Results from data analyses were expressed as mean±SEM. Data were analyzed using StatView 5.0 software (SAS Institute, Cary, N.C.).

Creb-1 gene = system: Creb-1 gene
Protocol: as §1, §2, §4, §5

[3] = system: doublecortin positive cells; experiment: Doublecortin (DCX) labeling for maturation index study, corticosterone model; type: in vivo, mice
Source text: The secondary antibody was biotinylated donkey anti-goat (1:500) (Jackson ImmunoResearch, West Grove, Pa.) in PBS for 2 hr at room temperature. Sections were developed using avidin-biotin complex (Vector, USA) and DAB kit.

[4] = system: β-arrestin 2 knock out mice; experiment: Novelty Suppressed Feeding paradigm in β-arrestin 2 knock out mice and littermates; type: in vivo
Source text: Twenty-four hours prior to behavioral testing, all food was removed from the home cage. At the time of testing, a single pellet of food (regular chow) was placed on a white paper platform positioned in the center of the box.

[5] = system: β-arrestin 2 knock out mice (S129/Sv×C57BL/6); experiment: Open Field paradigm in β-arrestin 2 knock out mice and littermates; type: in vivo
Source text: Adult male C57BL/6Ntac mice were purchased from Taconic Farms (Germantown, N.Y., USA; Lille Skensved, Denmark). Male heterozygous β-arrestin 2+/− and heterozygous female mutant β-arrestin+/− mice (age 4-6 months, 25-30 g body weight) were bred on a mixed S129/Sv×C57BL/6 genetic background raised at the animal facility of Columbia University (New York, USA). […] Food and water were provided ad libitum. Behavioral testing occurred during the light phase between 0700 and 1900 for the OF, NSF and FST, splash test.
For all the studies, control mice received β-CD.
Motor activity was quantified in four Plexiglas open field boxes 43 times 43 cm2 (MED Associates, Georgia, Vt.). Two sets of 16 pulse-modulated infrared photobeams were placed on opposite walls 2.5-cm apart to record x-y ambulatory movements. Activity chambers were computer interfaced for data sampling at 100-ms resolution. The computer defined grid lines that divided each Open Field into center and surround regions, with each of four lines being 11 cm from each wall. Dependent measures in the center were the total time and the number of entries over a 30-min period of test. The whole session was also divided in 5 periods to analyze the time spent in the center every 5 min. The overall motor activity was quantified as the total distance traveled (cm) or distance traveled in the center divided by total distance traveled.

C57BL/6Ntac mice [6] = experiment: Changes in coat state
C57BL/6Ntac mice [7] = experiment: Splash test (grooming); type: in vivo; settings: corticosterone, without or with 3 weeks of fluoxetine 18 mg/kg/day; mean±SEM
Protocol: This test consisted in squirting 200 ul of a 10% sucrose solution on the mouse's snout. The grooming duration and grooming frequency were then recorded.

## CNCCC(Oc1ccc(C(F)(F)F)cc1)c1ccccc1 (centres unmarked) [fluoxetine]
C57BL/6Ntac mice [1]; corticosterone treated animals, alone or with antidepressant
  immobility duration (FST): 311.4 s
C57BL/6Ntac mice [1]; non-corticosterone treated animals
  immobility duration (FST): 302.9 s
C57BL/6Ntac mice [1]; two-way ANOVA, corticosterone 7 weeks, antidepressants last 3 weeks
  duration of immobility (FST), effect: decreased
Giα2
  Giα2 expression: totally reversed
β-arrestin 2; hippocampus, fluoxetine
  β-arrestin 2 levels: opposite effect
β-arrestin 2; hypothalamus, fluoxetine in corticosterone-treated mice
  β-arrestin 2 expression: reversed
β-arrestin 1
  β-arrestin 1 expression: totally reversed
[2]; amygdala
  mineralocorticoid receptor expression: unchanged
[2]; hippocampus
  mineralocorticoid receptor expression: unchanged
[2]; hypothalamus
  mineralocorticoid receptor expression: unchanged
Creb-1 gene; amygdala
  Creb-1 gene expression: unchanged
Creb-1 gene; hippocampus
  Creb-1 gene expression: unchanged
Creb-1 gene; hypothalamus
  Creb-1 gene expression: unchanged
[3]; chronic fluoxetine, control animals
  number of doublecortin positive cells with tertiary dendrites: increased
[3]; in the presence of corticosterone, compared with controls
  effect of fluoxetine on the number of doublecortin positive cells and their dendritic morphology: even more pronounced
[4]; mutant (β-arrestin 2 knock out) mice
  latency to feed (NSF): had no effect
[4]; wild-type mice
  latency to feed (NSF): significantly decreased
[5]; wild-type animals, 4 weeks fluoxetine
  total number of entries in the center (Open Field): increased
[5]; wild-type animals, 4 weeks fluoxetine 18 mg/kg/day
  time spent in the center (Open Field): increased
[5]; β-arrestin 2 knock out mice
  effect of fluoxetine on time spent in the center (Open Field): abolished
  total ambulatory distance (Open Field): absence of effects
  total number of entries in the center (Open Field): absence of effects
C57BL/6Ntac mice [6]; 3 week fluoxetine regimen
  deterioration of the coat state induced by chronic corticosterone: reversed
C57BL/6Ntac mice [6]; chronic corticosterone, without or with 3 week fluoxetine, mean±SEM
  coat state total score (sum of five body parts): 1.80±0.08
C57BL/6Ntac mice [7]
  grooming duration (splash test): 99.8 s
  grooming frequency (splash test): 9±1
